# Results from patent US20150258059A1, “ANTIMICROBIAL AND RADIOPROTECTIVE COMPOUNDS” (BioDiem, Ltd, priority 2001, published 2015).
# Experiments:
# C. krusei RMIT 177 = assay: M38-P microdilution MIC/MFC; assay type: cell-based; details: Table 16, 24 h, 35° C.
# Candida albicans = assay: M38-P microdilution MIC/MFC; assay type: cell-based; details: Table 16, 24 h, 35° C.
# Paecilomyces variotii = assay: M38-P microdilution MIC/MFC; assay type: cell-based; details: Table 16, 48 h, 35° C.
# Aspergillus fumigatus = assay: M38-P microdilution MIC/MFC; assay type: cell-based; details: Table 16, 48 h, 35° C.
# Rhizopus stoloniefer = assay: M38-P microdilution MIC/MFC; assay type: cell-based; details: Table 16, 48 h, 35° C.
# F. chlamydosporum = assay: M38-P microdilution MIC/MFC; assay type: cell-based; details: Table 16, 48 h, 35° C.
# A. Niger = assay: M38-P microdilution MIC/MFC; assay type: cell-based; details: Table 16, 48 h, 35° C.
# R. oryzae = assay: M38-P microdilution MIC/MFC; assay type: cell-based; details: Table 16, 48 h, 35° C.
# Fusarium graminearum = assay: microbe, parasite or virus in culture; assay type: cell-based; details: Table 16; M38-P; 48 h, 35° C.
# C. parapsilosis RMIT 178 = assay: M38-P microdilution MIC/MFC; assay type: cell-based; details: Table 16, 24 h, 35° C.
# Cryptococcus neoformans = assay: M38-P microdilution MIC/MFC; assay type: cell-based; details: Table 16, 24 h, 35° C.
# Fonsecaea pedrosoi = assay: M38-P microdilution MIC/MFC; assay type: cell-based; details: Table 16, Dematiaceous fungi
# Rhizomucor pusillus = assay: M38-P microdilution MIC/MFC; assay type: cell-based; details: Table 16, 48 h, 35° C.
# [1] = test system: C. guillermondii RMIT 176; assay: M38-P microdilution MIC/MFC; assay type: cell-based; details: Table 16, 24 h, 35° C.
# C. tropicalis RMIT 181 = assay: M38-P microdilution MIC/MFC; assay type: cell-based; details: Table 16, 24 h, 35° C.
# Pseudoallescheria boydii = assay: M38-P microdilution MIC/MFC; assay type: cell-based; details: Table 16, Dematiaceous fungi
# C. glabrate RMIT 157 = assay: M38-P microdilution MIC/MFC; assay type: cell-based; details: Table 16, 24 h, 35° C.
# A. Flavus = assay: M38-P microdilution MIC/MFC; assay type: cell-based; details: Table 16, 48 h, 35° C.
# Phialophora verrucosa = assay: M38-P microdilution MIC/MFC; assay type: cell-based; details: Table 16, Dematiaceous fungi
# [2] = test system: Corynebacterium paratuberculosis; assay: Anti-bacterial activity in vivo, infected mice
# Protocol: The therapeutic and prophylactic effect of the substances was determined in experiments in vivo on mice, infected intraperitoneally or intranasally with Corynebacterium paratuberculosis.
# Salmonella intranasally = assay: Anti-bacterial activity in vivo, infected mice; details: schedule +2, +3; 200 mg/kg intramuscularly
# [3] = test system: skin wounds infected by Streptococcus and Staphylococcus; assay: Treatment of infected wounds, human volunteers; assay type: in vivo; details: 0.1% ointment for 3 days
# Protocol: Human volunteers suffering from skin wounds infected by Streptococcus and Staphylococcus were treated with 0.1% Compounds (1) and (2) in an ointment base of vaseline, sheep fat, and sulfoxide.
structure (smiles),measurement,setting,value
C[C@@H]1[C@H](O)[C@@H](C)/C=C/C=C/C=C/C=C/C=C/C=C/C=C/[C@H](O[C@@H]2O[C@H](C)[C@@H](O)[C@H](N)[C@@H]2O)C[C@@H]2O[C@](O)(C[C@@H](O)C[C@@H](O)[C@H](O)CC[C@@H](O)C[C@@H](O)CC(=O)O[C@H]1C)C[C@H](O)[C@H]2C(=O)O [Amphotericin B],MIC,C. krusei RMIT 177,0.52 µg/mL
same,MMC,C. krusei RMIT 177,0.5 µg/mL
same,MIC,Candida albicans,0.251 µg/mL
same,MMC,Candida albicans,0.25 µg/mL
same,MIC,Paecilomyces variotii,1 µg/mL
same,MMC,Paecilomyces variotii,1 µg/mL
same,MMC,Aspergillus fumigatus,8 µg/mL
same,MIC,Rhizopus stoloniefer,>16 µg/mL
same,MIC,F. chlamydosporum,2 µg/mL
same,MMC,F. chlamydosporum,2 µg/mL
same,MIC,A. Niger,2 µg/mL
same,MMC,A. Niger,2 µg/mL
same,MIC,R. oryzae,4 µg/mL
same,MMC,R. oryzae,4 µg/mL
same,MIC,Fusarium graminearum,4 µg/mL
same,MMC,Fusarium graminearum,8 µg/mL
same,MIC,C. parapsilosis RMIT 178,0.253 µg/mL
same,MMC,C. parapsilosis RMIT 178,0.25 µg/mL
same,MIC,Cryptococcus neoformans,0.5 µg/mL
same,MIC,Fonsecaea pedrosoi,8 µg/mL
same,MMC,Fonsecaea pedrosoi,16 µg/mL
same,MIC,Rhizomucor pusillus,1 µg/mL
same,MMC,Rhizomucor pusillus,1 µg/mL
same,MIC,[1],0.03 µg/mL
same,MMC,[1],0.06 µg/mL
same,MIC,C. tropicalis RMIT 181,0.25 µg/mL
same,MMC,C. tropicalis RMIT 181,0.5 µg/mL
same,MIC,Pseudoallescheria boydii,4 µg/mL
same,MMC,Pseudoallescheria boydii,16 µg/mL
same,MIC,C. glabrate RMIT 157,0.5 µg/mL
same,MMC,C. glabrate RMIT 157,1 µg/mL
same,MIC,A. Flavus,8 µg/mL
same,MMC,A. Flavus,8 µg/mL
same,MIC,Phialophora verrucosa,2 µg/mL
same,MMC,Phialophora verrucosa,4 µg/mL
"O=[N+]([O-])/C=C/c1ccc2c(c1)OCO2 [Compound (2), 3,4-methylenedioxy-β-nitrostyrene]",therapeutic and prophylactic activity,[2],showed therapeutic and prophylactic activity
same,Cumulative mortality (test),Salmonella intranasally,15
same,Incubation period days (test),Salmonella intranasally,1 days
same,solubility in organic solvents,Solubility,"soluble in acetone, alcohol, acetic acid and in a majority of organic solvents"
same,solubility in water,Solubility,non-soluble in water
same,clearing of infected wound,[3],cleared the wound completely of pus
